What all share (type): in vitro ADME
The test system of one data set is mouse hepatocytes. Kind of data set: Hepatocyte intrinsic clearance assay, mouse hepatocytes. To be noted: for CLint (μL/min/10^6 ells) / EH (%) hepatic extraction ratio: Mouse Hepatocytes; for CLint (μL/min/10^6 ells): 1 μM test compound; for EH (%) hepatic extraction ratio: well stirred liver model, fu=1; for EH lower as compared to ARI-002, in words / times lower clearance as compared to ARI-002 / clearance / metabolic profile, in words: mouse hepatocytes. An excerpt: (§1) The liver is an important organ in the body for drug metabolism. This Example describes hepatocyte intrinsic clearance assays using both human and mouse hepatocytes to evaluate the metabolic stability of the indole compounds disclosed herein. The parameters measured include t1/2 (half-life), CLint (intrinsic clearance), and EH (hepatic extraction ratio).
(§2) Testosterone (Lot FE111011-01) was obtained from Cerilliant (Round Rock, TX). 7-hydroxycoumarin (Lot 11631ED) was obtained from Sigma Aldrich (St. Louis, MO). Cryopreserved human hepatocytes pooled from ten donor males (X008001), cryopreserved male IRC/CD-1 mouse hepatocytes (M005052), INVITROGRO HI Medium (incubation), and INVITROGRO HT Medium (thawing) were obtained from Bioreclamation IVT (Baltimore, MD). All solvents were obtained from commercial sources and used without further purification.
(§3) Each test compound was prepared as a 1 mM stock solution in DMSO. A 2 μM solution of test compound and positive controls were prepared in INVITROGRO HI Medium (incubation). These solutions were pre-warmed in a sterile incubator set to maintain 37° C., 5% CO2, and 98% humidity. Cryopreserved hepatocytes were prepared at a concentration of 2×10^6 living cells/mL in incubation media and pre-warmed in the incubator. The compound solutions and hepatocyte mixtures were then combined at a ratio of 1:1 (v:v). The final volume of the reaction mixture was 750 μL, containing 1 μM test compound (10 μM for 7-hydroxycoumarin) and […]. The reaction mixture was placed in the incubator on a plate shaker. After 0, 15, 30, 60, 90, and 120 minutes of incubation, 100 μL of reaction mixtures were removed from the incubation plate and mixed with 150 μL of ice-cold acetonitrile in a designated well of a 96-well crash plate. The 96-well crash plate was placed on ice for 15 min, and samples were centrifuged (3,600 RPM, 10 min, 4° C.) to precipitate protein. The supernatants were diluted 1:1 (v:v) with water containing 0.15 μM verapamil and/or 1 μM tolbutamide (internal standards for positive and negative modes, respectively) in a 96-well shallow injection plate. This plate was sealed for LC-MS analysis. All measurements were done in duplicate.
(§4) The residual compound remaining (% R) was determined from LC-MS peak areas by comparison to the zero time point. Metabolic half-life (t1/2) and intrinsic clearance (CLint) values were calculated from the slope of the plot of ln (% R) vs. time and the concentration of hepatocytes present in the incubation. Percent remaining at 60 minutes was calculated by plugging in the 60 minute value into the slope equation generated by the percent remaining time points.
(§5) In vivo hepatic clearance CLH was calculated using the well stirred liver model according to the following equation:
(§6) [formula] where QH is the total liver blood flow, fu is unbound fraction of the drug, and CL′int is defined as follows: CL′int=CLint×(10^6 cells/g of liver weight)×(g liver weight/kg of body weight). In the first approximation, used in this study, fu=1.
(§7) Hepatic extraction ratio EH was calculated using the following equation:
(§8) [formula] Corresponding physiological parameters used in calculations for all species are shown below in Table 5.

Test in data set [1]: as above
To be noted: male, IRC/CD-1, cryopreserved mouse hepatocytes; Mouse Hepatocytes, 1 μM test compound.
Excerpt: as §1, §2, §3, §4, §5, §6, §7, §8

A further data set deals with human hepatocytes. The data set is described as follows: Hepatocyte intrinsic clearance assay, human hepatocytes. To be noted: for CLint (μL/min/10^6 ells) / EH (%) hepatic extraction ratio: Human Hepatocytes; for CLint (μL/min/10^6 ells): 1 μM test compound; for EH (%) hepatic extraction ratio: well stirred liver model, fu=1; for EH lower as compared to ARI-002, in words / times lower clearance as compared to ARI-002 / clearance / metabolic profile, in words: human hepatocytes.
Excerpt: as §1, §2, §3, §4, §5, §6, §7, §8

Test in data set [2]: as above
The conditions noted are these: male, cryopreserved pooled human hepatocytes; Human Hepatocytes, 1 μM test compound.
Excerpt: as §1, §2, §3, §4, §5, §6, §7, §8

The term half-life denotes the time needed for the level to fall by half in the phase considered.

Turning to `CCC(=O)c1csc(C(=O)c2c[nH]c3ccc(F)cc23)n1` [ARI-087, 1-(2-(5-fluoro-1H-indole-3-carbonyl)thiazol-4-yl)propan-1-one], in the data set with mouse hepatocytes, the “CLint (μL/min/10^6 ells)” value was 6.3 μL/min/10^6 ells; the “EH (%) hepatic extraction ratio” value was 27%; the “EH lower as compared to ARI-002, in words” value is recorded as “three times lower”; the “times lower clearance as compared to ARI-002” value is 153 times. Also, the half-life at 1 μM in data set [1] worked out at 1.84 h. Further, in the data set on human hepatocytes, the “CLint (μL/min/10^6 ells)” value is on record as 6.0 μL/min/10^6 ells; the “EH (%) hepatic extraction ratio” value was found to be 43%; the “EH lower as compared to ARI-002, in words” value was “two times lower”; the “times lower clearance as compared to ARI-002” value turned out to be 23 times. The half-life at 1 μM in data set [2] was 1.91 h.

In the case of `CNC(=O)c1csc(C(=O)c2c[nH]c3ccc(F)cc23)n1` [ARI-065, 2-(5-fluoro-1H-indole-3-carbonyl)-N-methylthiazole-4-carboxamide], the “CLint (μL/min/10^6 ells)” value with mouse hepatocytes was 7.1 μL/min/10^6 ells; in the data set with human hepatocytes, 7.6 μL/min/10^6 ells. Besides, the “EH (%) hepatic extraction ratio” value in the data set with mouse hepatocytes came out at 29%; in the data set with human hepatocytes, 48%. In addition, the “clearance / metabolic profile, in words” value is “lower clearance and EH value” in the data set on mouse hepatocytes; “lower clearance and EH value” with human hepatocytes. The figures for the half-life at 1 μM in data set [1] and in data set [2] were 1.62 h and 1.52 h, respectively.

Turning to `NCc1nc(-c2csc(C(=O)c3c[nH]c4c(F)cccc34)n2)no1` [ARI-146, (4-(5-(aminomethyl)-1,2,4-oxadiazol-3-yl)thiazol-2-yl)(7-fluoro-1H-indol-3-yl)methanone], the entries for the “CLint (μL/min/10^6 ells)” value in the data set on mouse hepatocytes and with human hepatocytes were 6.9 μL/min/10^6 ells and 1.9 μL/min/10^6 ells, respectively. Besides, the results for the “EH (%) hepatic extraction ratio” value with mouse hepatocytes and in the data set on human hepatocytes were 29% and 19%, respectively. Also, the half-life at 1 μM was 1.67 h in data set [1] and 6.23 h in data set [2].

Take `COC(=O)c1csc(C(=O)c2c[nH]c3ccc(F)cc23)n1` [ARI-066, methyl 2-(5-fluoro-1H-indole-3-carbonyl)thiazole-4-carboxylate]: the “CLint (μL/min/10^6 ells)” value in the data set with mouse hepatocytes is recorded as 51.9 μL/min/10^6 ells; in the data set with human hepatocytes, 98.7 μL/min/10^6 ells. The entries for the “EH (%) hepatic extraction ratio” value in the data set on mouse hepatocytes and in the data set on human hepatocytes were 75% and 92%, respectively. The half-life at 1 μM in data set [1] came out at 0.223 h; in data set [2], 0.117 h.

With `Nc1nnc(-c2csc(C(=O)c3c[nH]c4cc(Cl)c(Cl)cc34)n2)o1` [ARI-120, (4-(5-amino-1,3,4-oxadiazol-2-yl)thiazol-2-yl)(5,6-dichloro-1H-indol-3-yl)methanone], in the data set on mouse hepatocytes, the “CLint (μL/min/10^6 ells)” value was 0.9 μL/min/10^6 ells; the “EH (%) hepatic extraction ratio” value turned out to be 4.8%; the “clearance / metabolic profile, in words” value was “low clearance”. The same molecule gave a half-life at 1 μM in data set [1] of 13.5 h. For the same molecule, in the data set with human hepatocytes, the “CLint (μL/min/10^6 ells)” value turned out to be 0.8 μL/min/10^6 ells; the “EH (%) hepatic extraction ratio” value was 8.5%; the “clearance / metabolic profile, in words” value was “low clearance”. Also, in data set [2], the half-life at 1 μM stood at 15.3 h.

Turning to `Nc1nnc(-c2csc(C(=O)c3c[nH]c4c(F)cccc34)n2)o1` [ARI-118, (4-(5-amino-1,3,4-oxadiazol-2-yl)thiazol-2-yl)(7-fluoro-1H-indol-3-yl)methanone], in the data set on mouse hepatocytes, the “CLint (μL/min/10^6 ells)” value amounted to 0.8 μL/min/10^6 ells; the “EH (%) hepatic extraction ratio” value is 4.6%; the “clearance / metabolic profile, in words” value is recorded as “low clearance”. The molecule further showed a half-life at 1 μM in data set [1] of 14 h. In addition, in the data set on human hepatocytes, the “CLint (μL/min/10^6 ells)” value came out at 0.7 μL/min/10^6 ells; the “EH (%) hepatic extraction ratio” value is on record as 8.4%; the “clearance / metabolic profile, in words” value is “low clearance”. This molecule also showed a half-life at 1 μM in data set [2] of 15.4 h.

Consider `COC(=O)c1csc(C(=O)c2c[nH]c3ccc(Cl)cc23)n1` [ARI-055, methyl 2-(5-chloro-1H-indole-3-carbonyl)thiazole-4-carboxylate], for which the “CLint (μL/min/10^6 ells)” value in the data set with mouse hepatocytes came to 5.1 μL/min/10^6 ells; in the data set with human hepatocytes it was 10.3 μL/min/10^6 ells. In addition, the “EH (%) hepatic extraction ratio” value with mouse hepatocytes came to 23%; in the data set with human hepatocytes, 56%. The half-life at 1 μM in data set [1] stood at 2.25 h; in data set [2], 1.12 h.

Turning to `CCC(=O)c1csc(C(=O)c2c[nH]c3cc(F)c(F)cc23)n1` [ARI-149, 1-(2-(5,6-difluoro-1H-indole-3-carbonyl)thiazol-4-yl)propan-1-one], the entries for the “CLint (μL/min/10^6 ells)” value with mouse hepatocytes and in the data set on human hepatocytes were 2.9 μL/min/10^6 ells and 5.3 μL/min/10^6 ells, respectively. The entries for the “EH (%) hepatic extraction ratio” value with mouse hepatocytes and with human hepatocytes were 15% and 39%, respectively. For the same molecule, the half-life at 1 μM in data set [1] was found to be 3.97 h; in data set [2], 2.2 h.

As to `CCC(=O)c1csc(C(=O)c2c[nH]c3cc(F)ccc23)n1` [ARI-143, 1-(2-(6-fluoro-1H-indole-3-carbonyl)thiazol-4-yl)propan-1-one], in the data set with mouse hepatocytes, the “CLint (μL/min/10^6 ells)” value is listed as 2.3 μL/min/10^6 ells; the “EH (%) hepatic extraction ratio” value is reported as 12%; the “EH lower as compared to ARI-002, in words” value is reported as “eight times lower”; the “times lower clearance as compared to ARI-002” value came out at 418 times. This molecule also showed a half-life at 1 μM in data set [1] of 5.1 h. For the same molecule, in the data set with human hepatocytes, the “CLint (μL/min/10^6 ells)” value is 4.5 μL/min/10^6 ells; the “EH (%) hepatic extraction ratio” value is on record as 36%; the “EH lower as compared to ARI-002, in words” value is reported as “two times”; the “times lower clearance as compared to ARI-002” value came out at 30 times. The same molecule displayed a half-life at 1 μM in data set [2] of 2.57 h.

The values above are taken from patent US11891386B2, “Indole compounds and their use” (ARIAGEN, INC., priority 2017, dated 2024).
